Data reported in patent US4728732A, “C-3'acylsulfonamido cephalosporin analogs” (American Home Products Corporation, priority 1985, dated 1988).
In brackets after ≈: the same amount, converted by molar mass.

How the values were obtained:
Assay type in all cases: cell-based
[1] = system: Streptococcus faecalis ATCC 29212; test: MIC, procedure A (two-fold dilutions in broth, Microtiter plate); settings: Enterococcus faecalis, ATCC29212
Description: (§1) The compounds of the invention are tested for their antibacterial activity. The test can be carried out in two ways:
(§2) A. The organisms used in the test comprise the following:
(§3) Staphylococcus aureus (penicillin-sensitive and resistant), Pseudomonas aeruginosa, Escherichia coli, […] pneumoniae, Bordetella bronchiseptica, Proteus vulgaris, P. mirabilis, Acinetobacter calcoaceticus.
(§4) Test organisms may be added or deleted in order to reflect current clinical patterns of antibiotic susceptibility or shifts in pathogenic potential.
(§5) Stock solution of appropriate medium (e.g. Mueller-Hinton Broth) is sterilized. Starting at a predetermined concentration (e.g. 250 μg/ml), two-fold dilutions are made with the Dynatech Automatic Diluter in a Microtiter plate of 8 rows of 12 wells each in which 11 wells in each row contain 50 μl of medium (e.g. Mueller-Hinton Broth) and the 12th well contains in 100 μl an aliquot of the compound to be tested. The diluted plates are inoculated using the Dynatech Automatic Inoculator which delivers the final inoculum (e.g. 10^5 cfu/ml of a seven-hour culture which has been incubated at 35° C.).
(§6) Plates are sealed with tape and incubated (e.g. 18 hours at 35° C.).

[2] = system: Pseudomonas aeruginosa ATCC 27853; test: as above; settings: ATCC27853
Description: as §1, §2, §3, §4, §5, §6

[3] = system: Enterobacter cloacae ATCC 13047; test: as above; settings: ATCC13047
Description: as §1, §2, §3, §4, §5, §6

[4] = system: Serratia marcescens ATCC 13880; test: as above; settings: ATCC13880
Description: as §1, §2, §3, §4, §5, §6

[5] = system: Klebsiella pneunomiae KL-1; test: as above; settings: KL1
Description: as §1, §2, §3, §4, §5, §6

[6] = system: Proteus vulgaris A 84354 1; test: as above; settings: A843541
Description: as §1, §2, §3, §4, §5, §6

[7] = system: Escherichia coli ATCC 25922; test: as above; settings: ATCC25922
Description: as §1, §2, §3, §4, §5, §6

[8] = system: Staphylococcus aureus ATCC 29213; test: as above; settings: ATCC29213
Description: as §1, §2, §3, §4, §5, §6

[9] = system: Streptococcus faecalis ATCC 29212; test: MIC, procedure B (agar, Steers replicating device); settings: Enterococcus faecalis, ATCC29212
Description: as §1
(§7) B. The organisms used in the test comprise the following:
as §3, §4
(§8) Organisms are normally grown for 18 hours in Brain Heart Infusion at 35° C. Cultures are adjusted with saline to MacFarland No. 1.5 standard prior to use.
(§9) Stock concentrations (e.g […] or units per ml) are prepared in a suitable vehicle. Two-fold dilutions are made. One ml quantities of each dilution are incorporated in 9 ml of the appropriate agar (e.g. Seed) in sterile Petri plates. The hardened surface is inoculated with test organisms by use of a Steers replicating device. The plates are incubated (e.g. 18 hours at 35° C.) and activity is determined.

[10] = system: Pseudomonas aeruginosa ATCC 27853; test: MIC, procedure B (agar, Steers replicating device); settings: ATCC27853
Description: as §1, §7, §3, §4, §8, §9

[11] = system: Enterobacter cloacae ATCC 13047; test: MIC, procedure B (agar, Steers replicating device); settings: ATCC13047
Description: as §1, §7, §3, §4, §8, §9

[12] = system: Serratia marcescens ATCC 13880; test: MIC, procedure B (agar, Steers replicating device); settings: ATCC13880
Description: as §1, §7, §3, §4, §8, §9

[13] = system: Klebsiella pneunomiae KL-1; test: MIC, procedure B (agar, Steers replicating device); settings: KL1
Description: as §1, §7, §3, §4, §8, §9

[14] = system: Proteus vulgaris A 84354 1; test: MIC, procedure B (agar, Steers replicating device); settings: A843541
Description: as §1, §7, §3, §4, §8, §9

[15] = system: Escherichia coli ATCC 25922; test: MIC, procedure B (agar, Steers replicating device); settings: ATCC25922
Description: as §1, §7, §3, §4, §8, §9

[16] = system: Staphylococcus aureus ATCC 29213; test: MIC, procedure B (agar, Steers replicating device); settings: ATCC29213
Description: as §1, §7, §3, §4, §8, §9

Work on `CO/N=C(\C(=O)N[C@@H]1C(=O)N2C(C(=O)OC(C)(C)C)=C(CN3C(=O)c4cccnc4S3(=O)=O)CS[C@H]12)c1csc(N)n1` [3 B.] yielded an MIC [1] of 256 µg/mL (≈ 403 µM), an MIC [2] of 256 µg/mL (≈ 403 µM) and an MIC [3] of 128 µg/mL (≈ 201 µM). The MIC [4] was 8 µg/mL (≈ 12.6 µM), the MIC [5] was 2 µg/mL (≈ 3.15 µM) and the MIC [6] was 8 µg/mL (≈ 12.6 µM). It also gave an MIC [7] of 4 µg/mL (≈ 6.29 µM) and an MIC [8] of 128 µg/mL (≈ 201 µM).
For `CO/N=C(\C(=O)N[C@@H]1C(=O)N2C(C(=O)O)=C(CN3C(=O)c4cccnc4S3(=O)=O)CS[C@H]12)c1csc(N)n1` [3 C.], the MIC [9] was 128 µg/mL (≈ 221 µM), the MIC [10] was 128 µg/mL (≈ 221 µM) and the MIC [11] was 16 µg/mL (≈ 27.6 µM). It also gave an MIC [12] of 2 µg/mL (≈ 3.45 µM), an MIC [13] of 1 µg/mL (≈ 1.73 µM) and an MIC [14] of 2 µg/mL (≈ 3.45 µM). It also gave an MIC [15] of 2 µg/mL (≈ 3.45 µM) and an MIC [16] of 32 µg/mL (≈ 55.2 µM).
Compound `CO/N=C(\C(=O)N[C@@H]1C(=O)N2C(C(=O)O)=C(CN3C(=O)c4ccccc4S3(=O)=O)CS[C@H]12)c1csc(N)n1` [2 C.] has an MIC [9] of 8 µg/mL (≈ 13.8 µM), an MIC [10] of 32 µg/mL (≈ 55.3 µM) and an MIC [11] of 8 µg/mL (≈ 13.8 µM). The MIC [12] was 4 µg/mL (≈ 6.91 µM), the MIC [13] was 0.5 µg/mL (≈ 0.864 µM) and the MIC [14] was 0.5 µg/mL (≈ 0.864 µM). For the same compound, the MIC [15] was 1 µg/mL (≈ 1.73 µM) and the MIC [16] was 4 µg/mL (≈ 6.91 µM).
For `CO/N=C(\C(=O)N[C@@H]1C(=O)N2C(C(=O)O)=C(CN3C(=O)c4cscc4S3(=O)=O)CS[C@H]12)c1csc(N)n1` [1 C.], the MIC [9] was 8 µg/mL (≈ 13.7 µM), the MIC [10] was 64 µg/mL (≈ 109 µM) and the MIC [11] was 4 µg/mL (≈ 6.84 µM). It also gave an MIC [12] of 2 µg/mL (≈ 3.42 µM), an MIC [13] of 1 µg/mL (≈ 1.71 µM) and an MIC [14] of 0.5 µg/mL (≈ 0.855 µM). It also gave an MIC [15] of 2 µg/mL (≈ 3.42 µM) and an MIC [16] of 4 µg/mL (≈ 6.84 µM).
`CO/N=C(\C(=O)N[C@@H]1C(=O)N2C(C(=O)OC(C)(C)C)=C(CN3C(=O)c4cscc4S3(=O)=O)CS[C@H]12)c1csc(N)n1` [1 B.] showed an MIC [1] of 256 µg/mL (≈ 400 µM), an MIC [2] of 128 µg/mL (≈ 200 µM) and an MIC [3] of 64 µg/mL (≈ 99.9 µM). The MIC [4] was 32 µg/mL (≈ 49.9 µM), the MIC [5] was 4 µg/mL (≈ 6.24 µM) and the MIC [6] was 4 µg/mL (≈ 6.24 µM). The MIC [7] was 8 µg/mL (≈ 12.5 µM) and the MIC [8] was 32 µg/mL (≈ 49.9 µM).
In the case of `CO/N=C(\C(=O)N[C@@H]1C(=O)N2C(C(=O)OC(C)(C)C)=C(CN3C(=O)c4ccccc4S3(=O)=O)CS[C@H]12)c1csc(N)n1` [2 B.], the MIC [1] is reported as 16 µg/mL (≈ 25.2 µM), the MIC [2] is reported as 64 µg/mL (≈ 101 µM) and the MIC [3] is reported as 16 µg/mL (≈ 25.2 µM). It also gave an MIC [4] of 8 µg/mL (≈ 12.6 µM), an MIC [5] of 1 µg/mL (≈ 1.58 µM) and an MIC [6] of 1 µg/mL (≈ 1.58 µM). It also gave an MIC [7] of 2 µg/mL (≈ 3.15 µM) and an MIC [8] of 8 µg/mL (≈ 12.6 µM).
